# According to ChEMBL document CHEMBL1136020, “Synthesis and biological evaluation of an N10-Psec substituted pyrrolo[2,1-c][1,4]benzodiazepine prodrug” (Bioorg Med Chem Lett, 2002):
# “And” between values parts separate entries of the source, which are not always exact repeats. Identical values can stand only once. The source made the active and inactive calls. The calls are words filed in the database; no cut-off is given here.
# Assays:
# CH1 [1] = test: Tested for the cytotoxicity in CHIcisR ovarian cell line; assay type: functional, cell-based; settings: Homo sapiens, CH1cisR
# MDA-MB-435 [2] = test: Concentration required to decrease cell population by 50% on continuous exposure for 48 hr in Breast (MDA-MB-435) cell line; assay type: functional; settings: Homo sapiens, MDA-MB-435, 48 h; read-out: LC50 (the source's name)
# SNB-75 [3] = test: Concentration required to decrease cell population by 50% on continuous exposure for 48 hr in CNS (SNB-75) cell line; assay type: functional; settings: Homo sapiens, SNB-75, 48 h; read-out: LC50 (the source's name)
# COLO 205 [4] = test: Concentration required to decrease cell population by 50% on continuous exposure for 48 hr in Colon (COLO 205) cell line C; assay type: functional; settings: Homo sapiens, COLO 205, 48 h; read-out: LC50 (the source's name)
# SK-MEL-5 [5] = test: Concentration required to decrease cell population by 50% on continuous exposure for 48 hr in Melanoma (SK-MEL-5) cell line; assay type: functional; settings: Homo sapiens, SK-MEL-5, 48 h; read-out: LC50 (the source's name)
# SK-OV-3 = test: Tested for the cytotoxicity in SKOV-3 ovarian cell line; assay type: functional, cell-based; settings: Homo sapiens
# CH1 [6] = test: Tested for the cytotoxicity in CHI ovarian cell line; assay type: functional, cell-based; settings: Homo sapiens
# A2780 [7] = test: Tested for the cytotoxicity in A2780cisR ovarian cell line (cisR denotes resistance to cisplatin); assay type: functional, cell-based; settings: Homo sapiens
# RXF 393 [8] = test: Concentration required to decrease cell population by 50% on continuous exposure for 48 hr in Renal (RXF 393) cell line; assay type: functional; settings: Homo sapiens, RXF 393, 48 h; read-out: LC50 (the source's name)
# NCI-H522 [9] = test: Concentration required to decrease cell population by 50% on continuous exposure for 48 hr in Lung ([…]) cell line; assay type: functional; settings: Homo sapiens, NCI-H522, 48 h; read-out: LC50 (the source's name)
# COLO 205 [10] = test: Concentration required to restrict cell growth to 50% on continuous exposure for 48 hr in Colon (CoIo 205) cell line; assay type: functional; settings: Homo sapiens, COLO 205, 48 h
# SNB-75 [11] = test: Concentration required to restrict cell growth to 50% on continuous exposure for 48 hr in CNS (SNB-75) cell line; assay type: functional; settings: Homo sapiens, SNB-75, 48 h
# [12] = Ratio of cytotoxicity of cisR/normal cell line; assay type: functional
# A2780 [13] = test: Tested for the cytotoxicity in A2780 ovarian cell line; assay type: functional, cell-based; settings: Homo sapiens
# NCI-H522 [14] = test: Concentration required to restrict cell growth to 50% on continuous exposure for 48 hr in Lung ([…]) cell line; assay type: functional; settings: Homo sapiens, NCI-H522, 48 h
# SK-MEL-5 [15] = test: Concentration required to restrict cell growth to 50% on continuous exposure for 48 hr in Melanoma (SK-MEL-5) cell line; assay type: functional; settings: Homo sapiens, SK-MEL-5, 48 h
# MDA-MB-435 [16] = test: Concentration required to restrict cell growth to 50% on continuous exposure for 48 hr in Breast (MDA-MB-435) cell line; assay type: functional; settings: Homo sapiens, MDA-MB-435, 48 h
# RXF 393 [17] = test: Concentration required to restrict cell growth to 50% on continuous exposure for 48 hr in Renal (RXF 393) cell line; assay type: functional; settings: Homo sapiens, RXF 393, 48 h
# [18] = Ratio of cytotoxicity of cisR/normal cell line; not active; assay type: functional
Structure (SMILES),IC50 (CH1 [1]),CC50 (MDA-MB-435 [2]),CC50 (SNB-75 [3]),CC50 (COLO 205 [4]),CC50 (SK-MEL-5 [5]),IC50 (SK-OV-3),IC50 (CH1 [6]),IC50 (A2780 [7]),CC50 (RXF 393 [8]),CC50 (NCI-H522 [9]),GI50 (COLO 205 [10]),GI50 (SNB-75 [11]),Resistance factor [12],IC50 (A2780 [13]),GI50 (NCI-H522 [14]),GI50 (SK-MEL-5 [15]),GI50 (MDA-MB-435 [16]),GI50 (RXF 393 [17]),Resistance factor [18]
COc1cc2c(cc1OC)N(C(=O)OCCS(=O)(=O)c1ccccc1)[C@@H](O)[C@@H]1CCCN1C2=O,470 nM,4330 nM,9000 nM,710 nM,6780 nM,560 nM,400 nM,490 nM,2970 nM,1380 nM,190 nM,720 nM,1 and 1.2,480 nM,110 nM,290 nM,450 nM,240 nM,
COc1cc2c(cc1OC)C(=O)N1CCC[C@H]1C=N2,110 nM,,,,,1700 nM,82 nM,155 nM,,,,,2.4 and 1.3,64 nM,,,,,
COc1cc2c(cc1OC)N(C(=O)OCCSc1ccccc1)[C@@H](O)[C@@H]1CCCN1C2=O,> 25000 nM,,,,,> 25000 nM,> 25000 nM,> 25000 nM,,,,,,> 25000 nM,,,,,inactive
